Assay results reported in article PMC10707934, “Design and Synthesis of Novel α-Methylchalcone Derivatives, Anti-Cervical Cancer Activity, and Reversal of Drug Resistance in HeLa/DDP Cells” (Molecules, 2023).

Legend:
Assay type in all cases: cell-based, human
HeLa/DDP cells [1] = assay: Transwell migration assay, HeLa/DDP; details: 24 h, control 497
Protocol: HeLa (5 × 10^4 cells) was suspended in 200 μL of FBS-free medium. The top chamber contained the vehicle and various concentrations of compound 3k (2.5, 5, and 10 μM), cisplatin (20 μM) and chalcone (20 μM). The lower chamber was filled with 600 μL of medium containing 10% FBS. After incubating at 37 °C for 24 h, the cells on the top side of the Transwell membrane were removed with a cotton tip. Cells were fixed and stained with 4% paraformaldehyde (LEAGENE BIOTECHNOLOGY, Cat:DF0135, Lot:0823A23, Zhongguancun, Haidian District, Beijing, China) and 0.1% crystal violet solutions (Leagene Biotechnology, Cat:DZ0055, Lot:0508A23, Zhongguancun, Haidian District, Beijing, China) for 30 min to fix cells trapped on the perforated side of the membrane.
The experimental methods for the effects of compound 3k, cisplatin, and chalcone on HeLa/DDP cell invasion and migration were the same as in Section 3.3.6.

HeLa cells = assay: Annexin V-FITC/PI pro-apoptosis assay, HeLa; details: 24 h
Protocol: (§1) Cell fluid (2 mL per well) at a concentration of 1.5 × 10^5 cells / mL was added to a 6-well plate and cultured in a cell incubator with 5% CO2 at 37 °C for 24 h. The old solution was discarded; 2 mL of the medium containing compound 3k was added to each well at a concentration gradient of 2.5, 5, and 10 μM; and the experiment was repeated three times at each concentration. Complete medium containing only cells was used as a blank control group, and 20 μM of cisplatin injection and chalcone was used as a positive control. Cells were harvested following a 24 h incubation period, adhering to the guidelines provided with the BD kit (BD Biosciences Pharmingen, 556547, 10975 Torreyana Road, San Diego, CA, USA). Subsequently, the cells were subjected to staining in a light-restricted environment at ambient temperature for a duration of 15 min, followed by filtration and analysis via flow cytometry.

HeLa/DDP cells [2] = assay: Annexin V-FITC/PI pro-apoptosis assay, HeLa/DDP; details: 24 h
Protocol: as §1
The pro-apoptotic experiments of compound 3k, cisplatin, and chalcone on HeLa/DDP were performed in the same way as in Section 3.3.3. Western Blotting Analysis in the same way as in Section 3.3.4.

[3] = test system: α-tubulin, β-tubulin in HeLa/DDP cells; assay: Immunofluorescence assay of microtubules, HeLa/DDP; details: 24 h, 3k 1, 2, and 4 μM, paclitaxel 2.0 μM
Protocol: The cells were then fixed by adding 400 μL of 4% paraformaldehyde to each well and incubating for 30 min. 0.1% Triton was added at a volume of 400 μL per well and allowed to incubate for 10 min. Following this, goat serum (10%) was added at 400 μL per well and incubated for 40 min. Primary antibodies (α-tubulin, β-tubulin) were then incubated overnight at a temperature of 4 °C. Subsequently, secondary antibodies (α-mouse, β-rabbit) were incubated for 1.5 h. DAPI staining was performed at 400 μL per well for 5 min, followed by a wash with PBS. Cell climbing tablets were removed and inverted onto slides with sealer. Photographs were captured using a fluorescent inverted microscope.

Bax [4] = assay: Western blot, Bax expression in HeLa/DDP cells; details: 24 h, 5 and 10 μM
Protocol: (§2) HeLa cells were cultured in 60 mm Petri dishes at a density of 1.0 × 10^6 cells per dish and treated with 0.1% DMSO (vehicle), positive control chalcone (20 μM), and different concentrations of compound 3k (2.5, 5, and 10 μM), respectively. Following a 24 and 48 h incubation period, the cells were harvested via centrifugation and subsequently washed twice with PBS that had been chilled to 0 °C. Next, the cells were homogenized using RIPA lysis buffer (Solarbio, Beijing, China) and supplemented with 1% PMSF (MP Biomedicals, 0754-25G, CAS:329-98-6, Santa Ana, CA, USA) and 1% mixed phosphatase inhibitor (Solarbio, Beijing, China). […]
(§3) Subsequently, the protein concentrations were determined utilizing a BCA Protein Assay Kit (Solarbio, China). An equivalent quantity of the proteins (12 μg) was fractionated via 8–12% sodium dodecyl sulfate–polyacrylamide gel electrophoresis (SDS-PAGE) and transferred onto nitrocellulose membranes (Amersham Biosciences, Amersham, UK). […] The blots were subsequently visualized using enhanced chemiluminescence (Biosharp, Shanghai, China) and detected utilizing a PE 0723 imager (ProteinSimple, Silicon Valley, CA, USA). Each experiment was conducted in triplicate at minimum and analyzed employing Image J software (V1.8.0.112). β-actin(ab198991) rabbit mAb, goat anti-rabbit IgG (H + L) HRP—#S0001 (Affinity). […]

HeLa/DDP cells [5] = assay: Rhodamine 123 accumulation in HeLa/DDP cells; details: 48 h, 0.5 and 1 μM
Protocol: The experimental procedure involved the addition of 1 drop of PBS to each well of a 12-well plate, followed by the placement of cell crawlers and removal of excess PBS. HeLa/DDP cells were then plated at a concentration of 1.5 × 10^5 cells/mL, with 1 mL per well, and cultured for a duration of 24 h. A blank control group was established alongside a positive group treated with verapamil (6 μM) and an intervention group treated with 3k (0.25, 0.5, and 1 μM) for a duration of 48 h. The drug-containing culture medium was subsequently washed with PBS three times, with each wash lasting 5 min. The Rh123 master mix was diluted with culture medium to create a 20 μM Rh123 buffer, which was subsequently incubated at a temperature of 37 °C for a duration of 1 h. Following this incubation period, the Rh123 buffer was removed, and the cells were subjected to three consecutive washes with PBS, each lasting for 10 min. Subsequently, a fixation process was conducted using 4% paraformaldehyde at a volume of 1 mL per well, with a duration of 20 min. […] Subsequently, the side containing cells was affixed onto the liquid and made ready for measurement. The cells were then examined using a fluorescence microscope (Leica, Microsystems CMS GmbH, GER) equipped with a fluorescein filter, and the fluorescence intensity of each distinct group was assessed.

Bax [6] = assay: Western blot, Bax expression in HeLa cells; details: 24 h, 2.5, 5, and 10 μM
Protocol: as §2, §3

| SMILES | number of migrated cells (HeLa/DDP cells [1]; 20 μM) | pro-apoptotic rate (HeLa cells; 20 μM) | pro-apoptotic rate (HeLa/DDP cells [2]; 20 μM) | number of migrated cells (HeLa/DDP cells [1]; 2.5 μM) | number of migrated cells (HeLa/DDP cells [1]; 5 μM) | number of migrated cells (HeLa/DDP cells [1]; 10 μM) | pro-apoptotic rate (HeLa cells; 2.5 μM) | pro-apoptotic rate (HeLa cells; 5 μM) | pro-apoptotic rate (HeLa cells; 10 μM) | microtubule immunofluorescence (α green, β red) [3] | pro-apoptotic rate (HeLa/DDP cells [2]; 2.5 μM) | pro-apoptotic rate (HeLa/DDP cells [2]; 5 μM) | pro-apoptotic rate (HeLa/DDP cells [2]; 10 μM) | Bax expression versus control group (Bax [4]) | average fluorescence intensity emitted by rhodamine 123 (HeLa/DDP cells [5]) | Bax expression versus control group (Bax [6]) |
| --- | --- | --- | --- | --- | --- | --- | --- | --- | --- | --- | --- | --- | --- | --- | --- | --- |
| N.N.[Cl][Pt][Cl] [Cisplatin, cisplatin, reference compound] | 395 | 46.7% | 15.0% |  |  |  |  |  |  |  |  |  |  |  |  |  |
| COc1ccc(/C=C(\C)C(=O)c2ccc(Cl)c(Cl)c2)cc1OC [Compound 3k, (E)-1-(3,4-Dichlorophenyl)-3-(3,4-dimethoxyphenyl)-2-methylprop-2-en-1-one] |  |  |  | 251 | 179 | 113 | 29.6% | 47.2% | 64.8% | attenuation of the green and red fluorescence of the enclosed cells | 36.7% | 46.3% | 63.7% | significant increase | notably greater than that of the control group | significant upregulation |
